Laboratory results reported in paper PMC5719405, “Sex-related pharmacokinetic differences and mechanisms of metapristone (RU486 metabolite)” (Scientific Reports, 2017).

Assays:
human CYP3A4 = human CYP3A4 (Homo sapiens, UniProt P08684); test: Metapristone metabolism by cDNA-expressed recombinant human CYP3A4; conditions: 9 µM
[1] = In vitro microsomal metabolism of metapristone; type: in vitro ADME, rat; conditions: for metapristone remained: 2 h; for degradation of metapristone: 37 °C, 1 h
Description: The microsomal assay was similar to that described previously. Briefly, metapristone (6, 9, 13.5 µM) was incubated with male and female at liver microsomes, respectively, in an NADPH-generating system containing 1 mM NADP, 10 mM glucose-6-phosphate, 1 U/mL glucose-6-phosphate dehydrogenase and 4 mM MgCl2 in 100 mM potassium phosphate buffer (pH 7.4). Reaction mixtures were prepared in duplicate and were pre-incubated for 5 min at 37 °C. The actions were then initiated by the addition of NADPH solution. The final volume of each reaction mixture was 200 µL. Negative control reactions were prepared by incubating mixtures that excluded metapristone from the mixture. For negative control incubation where microsomes were excluded, they were added back to the reaction mixture after quenching with methanol. Samples were removed at 0, 40, 60, 80,100, 120 and 150 min, and vortex-mixed with cold ethyl acetate to stop the reaction. After centrifugation, a portion of each resulting supernatant was analyzed by mass spectrometry for unchanged metapristone.

[2] = rats, 12.5, 50 and 200 mg/kg/day; only occurred at 200 mg/kg/day; cited from earlier work
[3] = Repeated 10-day oral dosing, accumulation of metapristone in blood; type: in vivo; conditions: rats, 45 mg/kg/day p.o. for 10 days, 6 h post dosing
Description: In order to determine whether metapristone accumulated in blood over a long period of multiple dose administration, metapristone levels in blood were monitored at 6 h post dosing on day 1 and 10 during a consecutive 10-day oral dosing period with metapristone at 45 mg/kg/day.
For pharmacokinetic study, rats were fasted overnight with free access to water using procedures reported previously. Ninety-six SD rats (forty-eight males and forty-eight females) were randomly divided into eight single-dose groups. Rats (six animals/sex/dose) were given a single oral dose of 22.5, 45 and 90 mg/kg metapristone (in soybean oil solution) by intragastric administration or 10 mg/kg metapristone by intravenous bolus injection. Rat blood samples (0.25 mL) were collected from the ocular vein into heparinized tubes prior to and at 0 (before administration), 0.5, 1.0, 1.5, 2.0, 4.0, 6.0, 8.0, 12, 24, 36 and 48 h post-dosing in female rats or 0.5, 1.0, 1.5, 2.0, 4.0, 6.0, 8.0, 12, 24, 30 and 36 h post-dosing in male rats. In the repeated dose study twenty-four rats (six animals/sex/dose) received the same dosing regimen at 45 mg/kg metapristone for 10 days. Blood samples were collected after oral administration on day 1 and 10 at T max. The samples were stored at −80 °C until analysis. […]

human CYP1A2 = target: T1, human CYP1A2 (Homo sapiens, UniProt P05177); test: Metapristone metabolism by cDNA-expressed recombinant human CYP1A2; type: in vitro ADME; conditions: 9 µM
T1 construct: made in house; host or cells: insect cells
T1 sequence (P05177 1-516): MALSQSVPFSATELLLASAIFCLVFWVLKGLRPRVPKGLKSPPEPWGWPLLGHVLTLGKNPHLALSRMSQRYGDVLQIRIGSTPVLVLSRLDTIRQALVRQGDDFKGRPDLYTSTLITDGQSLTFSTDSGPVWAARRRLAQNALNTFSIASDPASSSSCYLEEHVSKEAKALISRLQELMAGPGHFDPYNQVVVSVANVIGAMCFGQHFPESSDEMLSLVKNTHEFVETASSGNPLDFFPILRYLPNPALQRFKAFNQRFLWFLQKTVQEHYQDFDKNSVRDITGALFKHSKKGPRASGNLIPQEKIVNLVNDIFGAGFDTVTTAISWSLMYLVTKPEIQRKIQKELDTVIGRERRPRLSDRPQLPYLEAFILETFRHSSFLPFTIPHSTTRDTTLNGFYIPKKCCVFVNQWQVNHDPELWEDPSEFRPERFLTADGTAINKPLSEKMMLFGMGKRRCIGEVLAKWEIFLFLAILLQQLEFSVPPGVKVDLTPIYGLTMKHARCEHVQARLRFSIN
Description: To identify CYP450 isomers which were responsible for the sex different metabolism of metapristone, both CYP450 inhibitors and cDNA-expressed recombinant human CYPs were used[11]. […] The reactions of the control groups with control rat liver microsomes (heated to 80 °C for 5 min to inactivate enzymes) to inactivate enzymes or without NADPH were also included. […] The cDNA-expressed recombinant human CYPs were prepared from insect cells transfected with cDNAs encoding for human CYP1A2 or CYP3A4. […] Each reaction was then started by the addition of metapristone (9 µM) with subsequent mixing of each sample by inversion. […] Metapristone were identified by the LC/MS/MS method. Peak areas formed were used for quantitative analyses. Control incubation mixtures included mixtures without inhibitors, and mixtures with untransfected insect cell microsomes used as microsomal control, and mixtures that contained methanol instead of inhibitor (methanol control). Quantitative analyses were performed by comparing the peak areas of the inhibition reactions to their respective methanol controls. The total organic solvent content of the in vitro reaction mixtures was less than 2%.

HT-29 cells = conditions: cited from earlier work
cancer cells = conditions: cited from earlier work
[4] = Tissue distribution study with metapristone; type: in vivo, SD rats; conditions: female rats, 45 mg/kg single oral dose
Description: Sixteen SD rats (four females/group) were dosed by gavage with 45 mg/kg of metapristone to carry out tissue distribution study, as we previously described. Rats were sacrificed at 6 h and 24 h after dosing in order to collect blood, heart, liver, spleen, lung, kidney, brain, intestine and ovary for quantitative analysis of metapristone concentrations. Tissue samples were immediately washed in normal saline to remove the blood or content, and blotted dry with filter paper. Tissue samples (0.2 g) were individually homogenized with normal saline (0.8 mL). Tissue homogenates (100 µL) were processed as the plasma samples. The detailed method validation for analysis of metapristone in plasma, tissue homogenates, and liver microsomal samples is provided in the Supplementary materials.

Chain of human CYP3A4 (P08684 whole entry): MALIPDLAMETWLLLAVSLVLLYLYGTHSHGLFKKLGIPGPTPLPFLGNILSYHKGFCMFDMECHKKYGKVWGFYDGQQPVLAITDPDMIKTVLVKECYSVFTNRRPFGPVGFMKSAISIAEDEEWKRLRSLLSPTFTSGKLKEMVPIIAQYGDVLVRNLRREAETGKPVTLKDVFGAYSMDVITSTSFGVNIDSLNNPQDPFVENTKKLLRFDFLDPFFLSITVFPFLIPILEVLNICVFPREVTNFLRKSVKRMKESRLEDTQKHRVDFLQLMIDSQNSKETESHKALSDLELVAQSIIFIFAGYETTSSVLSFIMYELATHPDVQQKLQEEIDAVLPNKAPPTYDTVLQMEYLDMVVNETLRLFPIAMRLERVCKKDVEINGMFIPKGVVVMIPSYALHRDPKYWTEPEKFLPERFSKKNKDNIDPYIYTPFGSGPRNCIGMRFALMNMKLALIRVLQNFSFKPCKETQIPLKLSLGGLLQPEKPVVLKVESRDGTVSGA

- metapristone remaining (human CYP3A4; 120 min incubation with CYP3A4, absence of inhibitor): 16.3%
- metapristone unchanged (human CYP3A4; 120 min incubation with CYP3A4, plus ketoconazole 10 µM): 72.9%
- metapristone remained ([1]; female rat liver microsomes, 6 µM): 21.9%
- metapristone remained ([1]; female rat liver microsomes, 9 µM): 27.2%
- metapristone remained ([1]; female rat liver microsomes, 13.5 µM): 37.3%
- degradation of metapristone ([1]; female rat liver microsomes, 6, 9 and 13.5 µM): 35.1–48.9%
- metapristone remained ([1]; male rat liver microsomes, 6 µM): 10.2%
- metapristone remained ([1]; male rat liver microsomes, 9 µM): 14.2%
- metapristone remained ([1]; male rat liver microsomes, 13.5 µM): 29.6%
- degradation of metapristone ([1]; male rat liver microsomes, 6, 9 and 13.5 µM): 47.4–67.6%
- accumulation of metapristone in blood, day 10 versus day 1 [3]: about 6 fold
- metapristone remained (human CYP1A2; 120 min incubation with CYP1A2, absence of inhibitor): 47.9%
- concentration at 6 h ([4]; Sprague-Dawley, rat, liver, 6 h): 222000 ± 23000 ng/g
- metapristone in rat brain [4]: detected
SMILES: CC#C[C@]1(O)CC[C@H]2[C@@H]3CCC4=CC(=O)CCC4=C3[C@@H](c3ccc(NC)cc3)C[C@@]21C [metapristone, N-monodemethyl mifepristone]
- hepatotoxicity after thirty-day oral administration [2]: reversible hepatotoxicity
- metapristone survived (human CYP1A2; 120 min incubation with CYP1A2, plus α-naphthoflavone 10 µM): 89.9%
- adhesion of HT-29 cells to endothelial cells (HT-29 cells): interrupted adhesion
- effect on cancer cells (cancer cells): cytostatic effect
